One experiment concerns MM96L melanoma cells. Description: Cell viability assay (MTS) after miRNA transfection, with or without drug; Bliss synergy analysis. To be noted: for EObs: observed fractional inhibition of the combination.
In experiment [1] the test system is A2058 melanoma cells. The experiment can be described thus: Drug sensitivity assay (cell viability after 4 days of drug). In kind it is cell-based. The conditions noted are these: Homo sapiens, 96 h, A2058 (wild type p53).
Experiment [2] deals with WM266-4 melanoma cells. Description: Cell viability assay (MTS) after miRNA transfection, with or without drug; Bliss synergy analysis. The conditions noted are these: for EObs: observed fractional inhibition of the combination.
Procedure: (§1) Cells were seeded in 96-well plates at a density of 2.5×10^3 cells per well and transfected with miRNA precursor molecules as above. Cell viability was measured 5 days after transfection using CellTitre 96 Aqueous One Solution Cell Proliferation Assay Kit (MTS assay) and a FLUOstar OPTIMA microplate reader. For synergy analysis between drugs and miR-7-5p, cells were plated as above and drug or DMSO was added 3 days after transfection with miR-7-5p or miR-NC for 4 days, at which time cell viability was measured (7 days after transfection).
(§2) Statistical significance was calculated using Student's t test (one-tailed, unpaired) and the level of significance was set at p<0.05. Drug sensitivity (IC50) was calculated using GraphPad Software (GraphPad Prism, version 5.04). The Bliss additivism model was used for synergy analysis. […] Here, Ebliss is the fractional inhibition expected if the combination of miR-7-5p and drug B was exactly additive. If the experimentally measured fractional inhibition is greater than Ebliss, the combination is synergistic.
Experiment [3] concerns WM266-4 melanoma cells. The experiment can be described thus: Drug sensitivity assay (cell viability after 4 days of drug). In kind it is cell-based. The conditions noted are these: Homo sapiens, WM 266-4, 96 h, WM266-4 (wild type p53).
Experiment [4] relates to A2058 melanoma cells. Description: Cell viability assay (MTS) after miRNA transfection, with or without drug; Bliss synergy analysis. To be noted: for EObs: observed fractional inhibition of the combination; for EObs/EBliss: >1 = synergistic; for EBliss: fractional inhibition expected if exactly additive; for cell viability, combination of miR-7-5p and drug compared to miR-NC: miR-7-5p 5 nM, suboptimal dose of drug (below the IC50) added 3 days post-transfection, 4 further days; for synergy of combination with miR-7-5p (Bliss additivism model): observed fractional inhibition greater than calculated additive inhibition.
Procedure: as §1, §2

In a further experiment the test system is SK-MEL-28 melanoma cells. The description is as above. To be noted: for EObs: observed fractional inhibition of the combination; for EObs/EBliss: >1 = synergistic; for EBliss: fractional inhibition expected if exactly additive.
Experiment [5] deals with melanoma cell lines (SK-MEL-28, WM266-4, MM96L and A2058). Description: Drug sensitivity assay (cell viability after 4 days of drug). The conditions noted are these: range over the melanoma cell lines. The format is cell-based.
The test system of a further experiment is Akt. The experiment can be described thus: IGF-1-induced activation of Akt signaling under NVP-AEW541 (data not shown). The format is cell-based.
A further experiment deals with ERK 1/2. Description: IGF-1-induced activation of ERK 1/2 signaling under NVP-AEW541 (data not shown). The format is cell-based.
Experiment [6] concerns breast cancer cell line MCF-7. The experiment can be described thus: Drug sensitivity assay (cell viability after 4 days of drug). To be noted: MCF-7 (positive control). In kind it is cell-based.
Where [7] appears, read: [miR-7-5p] 5 nM + [drug] 150 μM.
The mark [8] stands for this setting: [miR-7-5p] 5 nM + [drug] 100 nM.
Where [9] appears, read: [miR-7-5p] 5 nM + [drug] 5 μM, >1 = synergistic.
Setting [10] is: [miR-7-5p] 5 nM + [drug] 5 μM, fractional inhibition expected if exactly additive.

Structures are written as SMILES. Several values for one entry are separate records, joined by “and”; a condition that tells them apart may be missing. Identical values can stand only once.

We go through four molecules from patent publication US9795626B2, “Cancer therapy using miRNAs” (THE UNIVERSITY OF WESTERN AUSTRALIA, priority 2012, dated 2017).

Procedure for MM96L melanoma cells: as §1, §2
Procedure for SK-MEL-28 melanoma cells: as §1, §2

Take `Cn1nnc2c(C(N)=O)ncn2c1=O` [TMZ, temozolomide]: the EObs was 0.747 with MM96L melanoma cells (setting [7]); 0.864 and 0.878 with MM96L melanoma cells ([miR-7-5p] 5 nM + [drug] 500 μM); 0.748 and 0.732 with WM266-4 melanoma cells [2] ([miR-7-5p] 5 nM + [drug] 50 μM); 0.680 in the experiment with A2058 melanoma cells [4] ([miR-7-5p] 5 nM + [drug] 50 μM); 0.811 and 0.633 in the experiment with A2058 melanoma cells [4] (setting [7]). The IC50 was 167 µM in the experiment with A2058 melanoma cells [1] and 73.1 µM in the experiment on WM266-4 melanoma cells [3].

As to `CCCS(=O)(=O)Nc1ccc(F)c(C(=O)c2c[nH]c3ncc(-c4ccc(Cl)cc4)cc23)c1F` [PLX4032, vemurafenib], the EObs was 0.972 and 0.803 and 0.547 in the experiment with MM96L melanoma cells ([miR-7-5p] 2.5 nM^ + [drug] 50 nM); 0.661 in the experiment on SK-MEL-28 melanoma cells ([miR-7-5p] 5 nM + [drug] 50 nM); 0.773 with SK-MEL-28 melanoma cells (setting [8]); 0.855 and 0.853 and 0.790 with A2058 melanoma cells [4] (setting [8]). Further, the 50% inhibitory concentration (IC50) in [5] (96 h) was 0.08 to 0.23 µM.

On to `Nc1ncnc2c1c(-c1cccc(OCc3ccccc3)c1)cn2C1CC(CN2CCC2)C1` (centres unmarked) [NVP-AEW541], for which the EObs/EBliss is 1.06 in the experiment with MM96L melanoma cells (setting [9]); 1.24 and 1.17 with SK-MEL-28 melanoma cells ([miR-7-5p] 5 nM + [drug] 5 μM); 1.06 in the experiment on WM266-4 melanoma cells [2] (setting [9]); 1.10 and 1.20 in the experiment with A2058 melanoma cells [4] ([miR-7-5p] 5 nM + [drug] 5 μM). Also, the EBliss in the experiment with MM96L melanoma cells (setting [10]) is 0.515; in the experiment with SK-MEL-28 melanoma cells ([miR-7-5p] 5 nM + [drug] 5 μM), 0.474 and 0.265; in the experiment on WM266-4 melanoma cells [2] (setting [10]), 0.715; in the experiment with A2058 melanoma cells [4] ([miR-7-5p] 5 nM + [drug] 5 μM), 0.769 and 0.720. For the same molecule, the EObs was 0.547 in the experiment on MM96L melanoma cells ([miR-7-5p] 5 nM + [drug] 5 μM); 0.588 and 0.309 in the experiment with SK-MEL-28 melanoma cells ([miR-7-5p] 5 nM + [drug] 5 μM); 0.757 in the experiment on WM266-4 melanoma cells [2] ([miR-7-5p] 5 nM + [drug] 5 μM); 0.846 and 0.866 with A2058 melanoma cells [4] ([miR-7-5p] 5 nM + [drug] 5 μM). For the same molecule, the IC50 in experiment [5] is 8.27 to 25.1 µM; in experiment [6] it was 1.5 µM. Further, in the experiment on Akt (MCF-7 breast cancer cells), the “IGF-1-induced activation of Akt signaling pathway” value is reported as “attenuated”. The “Akt activity (IGF-1-induced)” value in the experiment on Akt (melanoma cell lines) was “abrogated”. Besides, the “IGF-1-induced activation of ERK 1/2 signaling pathway” value in the experiment with ERK 1/2 (MCF-7 breast cancer cells) is recorded as “attenuated”. Further, the “ERK 1/2 activity (IGF-1-induced)” value with ERK 1/2 (melanoma cell lines) is given as “persistence of ERK 1/2 activity”. In the experiment with A2058 melanoma cells [4], the “cell viability, combination of miR-7-5p and drug compared to miR-NC” value is “significant reduction”. The “synergy of combination with miR-7-5p (Bliss additivism model)” value with A2058 melanoma cells [4] is recorded as “synergistic”.

In the case of `COc1cc([C@@H]2c3cc4c(cc3[C@H](O)[C@H]3COC(=O)[C@@H]23)OCO4)cc(OC)c1OC` [PPP, picropodophyllin], in the experiment on SK-MEL-28 melanoma cells (setting [8]), the EObs/EBliss was 1.80 and 1.30; the EBliss was 0.292 and 0.391; the EObs is 0.526 and 0.508. In experiment [5] (96 h), this molecule registered an IC50 of 0.15 to 0.3 µM. Besides, in the experiment on A2058 melanoma cells [4] (setting [8]), the EObs/EBliss was 1.48 and 1.03 and 1.18; the EBliss is 0.447 and 0.684 and 0.420; the EObs was 0.663 and 0.704 and 0.496. Moreover, in the experiment with A2058 melanoma cells [4], the “cell viability, combination of miR-7-5p and drug compared to miR-NC” value is recorded as “significant reduction”; the “synergy of combination with miR-7-5p (Bliss additivism model)” value is reported as “synergistic”.

Usually IC50 stands for the concentration that gives 50% inhibition. Read a low IC50 as greater potency.
